Data published in patent publication US20240108734A1, “METHODS FOR TREATING AND AMELIORATING CANCER” (The Regents of the University of California, priority 2021, published 2024).

Key:
MF CD34+ cells (pre-LSC) = assay: SL/M2 stromal co-culture, clonogenic survival and self-renewal (replating) assays, myelofibrosis; assay type: cell-based, human; details: imetelstat only (5 uM in b222), compared with normal bone marrow; for self-renewal capacity (replating) of MF CD34+ cells (pre-LSC): p<0.001; for survival of MF CD34+ cells (pre-LSC): p<0.01
Source text: Lentiviral human wild-type and mutant ADAR1^E912A (pCDH-EF1-T2A-copGFP) and shRNA targeting ADAR1 were produced according to published protocols^27,37. In Vitro MPN-SPC and LSC Survival and Self-Renewal Assays with Imetelstat To assess MPN progenitor and LSC survival and self-renewal in vitro, human primary CD34^+ cells selected from BC CML (n=5), MF (n=9) or age matched normal bone marrow (a-NBM, n=4) were co-cultured with SL/M2 stromal cells for 7-14 days, and then treated with imetelstat alone or combined with dasatinib for BC CML or Pacritinib for MF. Colony forming and replating assays were performed as previously described^32.
To assess MPN progenitor and LSC survival and self-renewal in vitro, human primary CD34^+ cells selected from BC CML (n=5), MF (n=9) or age matched normal bone marrow (a-NBM, n=4) were co-cultured with SL/M2 stromal cells for 7-14 days, and then treated with Imetelstat alone or combined with dasatinib for BC CML or Pacritinib for MF. Colony forming and replating assays were performed as previously described^32,33.
FIG. 3A. A schematic illustration of SL/M2 stromal co-cultures established to quantify in vitro MPN-SPC and LSC survival and self-renewal. Human primary CD34^+ cells selected from BC CML (n=5), MF (n=9) or age matched normal bone marrow (a-NBM, n=4) were co-cultured with SL/M2 stromal cells for 7-14 days. While BC CML stromal co-cultures were treated with increasing doses of imetelstat with or without dasatinib, MF stromal co-cultures were treated with imetelast with or without pacritinib.
FIG. 3D. Imetelstat was used at concentrations ranging from 1 to 10 μM to treat aged normal bone marrow (aNBM, n=4, dark blue) compared with myelofibrosis (MF, light blue, n=9) in stromal co-cultures followed by clonogenic survival (upper panel) and self-renewal (lower panel) assays (**p<0.01, ***p<0.001).
FIG. 3E. Imetelstat was used at concentrations ranging from 1 to 10 μM alone or in combination with pacritinib (5 nM) to treat aged normal bone marrow (a-NBM, n=4, blue) compared with MF (green, n=9) in stromal co-cultures followed by clonogenic survival (upper panel) and self-renewal (lower panel) assays.

[1] = tested on: MF CD34+ cells engrafted in NSG-SGM3 mice; assay: Humanized MF MPN-SPC (pre-LSC) mouse model; assay type: in vivo
Source text: Human CD34^+ cells isolated from MF and BC CML samples (Table S2, illustrated as FIG. 11) were transplanted intravenously into adult NSG-SGM3 (expressing human IL-3, GM-CSF and SCF) mice following 300 cGy of irradiation or intrahepatically into neonatal RAG2^−/− yc^−/− mice, respectively^27,32.
Human CD34^+ cells isolated from MF and BC CML (Table S2) samples were transplanted intravenously into adult NSG-SGM3 (expressing human IL-3, GM-CSF and SCF) mice following
300 cGy of irradiation or intrahepatically into newborn RAG2^−/−[…]c^−/− mice^28,32,34. Post-transplantation (13 to 16 weeks), bone marrow and spleen were collected and analyzed by FACS^32. Mice were treated with vehicle, mismatch or imetelstat at varying doses. Also, MF CD34^+ cells were transduced with pCDH lentivirus control or ADAR1-OE lentivirus with a MOI of 100 for 48 hours, followed by intravenous transplantation into NSG-SGM3 mice to assess the impact of ADAR1 overexpression on MF engraftment.
FIG. 4A. A schema of humanized BC CML LSC and MF SPC mouse models. Human CD34^+ cells sorted from either BC CML or myelofibrosis patient blood or marrow were transplanted into neonatal Rag2^−/−[…]c^−/− mice or intravenously transplanted into adult NSG-S mice. Engrafted BC CML or MF mouse models were randomized into (1) vehicle control, (2) mismatch control, and (3) imetelstat treatment groups (n≥3/group). Bone marrow (BM) and spleen were collected when completing the dosing plan, and the single-cell suspension was analyzed by FACS.
FIG. 4B. Bone marrow from each treatment group was collected for histological examination and FACS analysis. Left: Photomicrogaphs depict reticulin staining, DAPI staining, human CD45^+ expression and merged DAPI and CD45 images in bone marrow collected from no transplant, vehicle, and mismatch controls as well as from imetelstat treated myelofibrosis (MF) mouse models. Right: FACS analysis plots depicting forward scatter (FSC, y-axis) and human CD45 engraftment (x-axis) in no transplant, vehicle, and mismatch controls as well as imetelstat treated MF mouse models.

telomerase = target: T1, telomerase (Homo sapiens, UniProt O14746); assay: TRAP telomerase activity assay in BC CML engrafted human CD45+ cells; assay type: in vivo; details: imetelstat compared with vehicle, p<0.0002
T1 construct: Cell lysates from 5×10^5 CD34^+ selected cells from BC CML engrafted mice or K562 cells were prepared; endogenous in cells; host or cells: human CD45+ / CD34+ cells selected from bone marrow or spleen of BC CML engrafted mice
Method: Telomere length was determined using the Telomere PNA Kit/FITC for Flow Cytometry (Dako, Cat #K5327) with a MACSQuant10 and analyzed with FlowJo software. The Relative Telomere Length (RTL) was calculated by dividing the mean fluorescence intensity (MFI) of the test sample G0/G1 population by the MFI of the normal peripheral blood reference G0/G1 population using the Cycletest™ Plus DNA Kit (BD, Cat #340242). Telomerase activity was determined using the TRAPeze Kit RT Telomerase Detection Kit (Millipore, Catalog No. S7710).
Samples were selected from engrafted mouse bone marrow or spleen with human CD45+ immunomagnetic beads (Miltenyi). Telomere length was determined by using the Telomere PNA Kit/FITC for Flow Cytometry (Dako, Cat #K5327). Samples were run on the MACSQuant10 and analyzed with FlowJo software. The Relative Telomere Length (RTL) was calculated. The 1301 cell line was utilized as control cells. The DNA index was determined with the (BD Cycletest™ Plus DNA Kit, Cat #340242). […] Telomerase activity was determined by using TRAPeze Kit RT Telomerase Detection Kit (Millipore, Catalog No. S7710). […]
FIG. 5D. Telomerase activity in BC CML engrafted human CD45^+ cells, as measured by TRAP assay, in vehicle (red), mismatch control (blue) and imetelstat (green) treated BC CML mice.

T1 sequence (O14746 whole entry): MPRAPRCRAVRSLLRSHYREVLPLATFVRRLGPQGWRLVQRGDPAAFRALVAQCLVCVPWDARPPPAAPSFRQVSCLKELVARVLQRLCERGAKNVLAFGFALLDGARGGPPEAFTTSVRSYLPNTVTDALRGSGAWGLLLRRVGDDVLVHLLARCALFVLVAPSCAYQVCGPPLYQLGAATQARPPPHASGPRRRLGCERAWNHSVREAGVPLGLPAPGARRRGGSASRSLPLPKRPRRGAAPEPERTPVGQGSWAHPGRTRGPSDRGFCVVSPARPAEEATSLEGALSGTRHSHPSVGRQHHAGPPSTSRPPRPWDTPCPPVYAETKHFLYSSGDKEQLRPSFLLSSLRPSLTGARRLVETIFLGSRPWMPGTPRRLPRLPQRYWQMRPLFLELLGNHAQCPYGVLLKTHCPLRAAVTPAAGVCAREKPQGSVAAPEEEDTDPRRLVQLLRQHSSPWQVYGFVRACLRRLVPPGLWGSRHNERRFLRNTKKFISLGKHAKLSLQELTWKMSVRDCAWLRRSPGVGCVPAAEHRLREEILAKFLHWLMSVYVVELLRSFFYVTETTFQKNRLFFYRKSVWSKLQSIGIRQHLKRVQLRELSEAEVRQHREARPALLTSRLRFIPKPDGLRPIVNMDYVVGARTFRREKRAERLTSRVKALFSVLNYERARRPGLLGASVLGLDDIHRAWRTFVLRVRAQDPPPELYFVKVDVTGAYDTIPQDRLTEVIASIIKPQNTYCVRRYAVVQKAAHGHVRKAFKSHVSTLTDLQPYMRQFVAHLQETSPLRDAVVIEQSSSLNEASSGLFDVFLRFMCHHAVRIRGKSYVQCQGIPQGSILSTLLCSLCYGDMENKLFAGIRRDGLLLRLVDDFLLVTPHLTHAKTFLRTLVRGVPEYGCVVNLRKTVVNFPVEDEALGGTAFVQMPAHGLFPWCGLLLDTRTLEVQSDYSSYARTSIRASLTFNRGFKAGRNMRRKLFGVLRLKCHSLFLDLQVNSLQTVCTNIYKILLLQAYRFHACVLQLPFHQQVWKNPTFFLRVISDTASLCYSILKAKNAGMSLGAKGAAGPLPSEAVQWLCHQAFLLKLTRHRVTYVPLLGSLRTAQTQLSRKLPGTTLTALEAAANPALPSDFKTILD
T1 sequence (O60832 whole entry partner): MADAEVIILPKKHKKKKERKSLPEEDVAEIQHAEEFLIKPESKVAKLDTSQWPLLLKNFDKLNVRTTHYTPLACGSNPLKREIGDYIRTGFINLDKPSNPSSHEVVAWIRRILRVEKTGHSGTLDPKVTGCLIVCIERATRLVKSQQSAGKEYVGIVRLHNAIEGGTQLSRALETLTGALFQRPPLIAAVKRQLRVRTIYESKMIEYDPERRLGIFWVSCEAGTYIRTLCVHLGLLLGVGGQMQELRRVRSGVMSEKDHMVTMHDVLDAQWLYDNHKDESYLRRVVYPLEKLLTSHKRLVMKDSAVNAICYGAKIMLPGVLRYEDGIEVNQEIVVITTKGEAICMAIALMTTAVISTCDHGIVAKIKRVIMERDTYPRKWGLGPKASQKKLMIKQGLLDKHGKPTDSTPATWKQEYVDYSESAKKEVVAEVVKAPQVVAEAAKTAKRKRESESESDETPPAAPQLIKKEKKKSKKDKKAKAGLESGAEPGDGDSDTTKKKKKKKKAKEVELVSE
T1 sequence (Q9NX24 whole entry partner): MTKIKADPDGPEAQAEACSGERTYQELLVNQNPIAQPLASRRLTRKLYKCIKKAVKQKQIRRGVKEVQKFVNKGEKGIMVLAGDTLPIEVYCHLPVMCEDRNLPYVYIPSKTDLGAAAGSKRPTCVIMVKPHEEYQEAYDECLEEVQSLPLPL
T1 sequence (Q9NPE3 whole entry partner): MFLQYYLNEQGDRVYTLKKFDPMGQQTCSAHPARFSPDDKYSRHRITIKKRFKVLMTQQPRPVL
T1 sequence (Q9NY12 whole entry partner): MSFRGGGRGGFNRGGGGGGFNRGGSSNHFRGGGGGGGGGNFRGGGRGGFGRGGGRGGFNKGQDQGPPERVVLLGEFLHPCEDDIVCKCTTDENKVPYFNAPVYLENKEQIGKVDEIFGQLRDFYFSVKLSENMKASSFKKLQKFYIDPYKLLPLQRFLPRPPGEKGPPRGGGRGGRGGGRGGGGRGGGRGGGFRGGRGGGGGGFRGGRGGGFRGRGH
T1 sequence (Q9BUR4 whole entry partner): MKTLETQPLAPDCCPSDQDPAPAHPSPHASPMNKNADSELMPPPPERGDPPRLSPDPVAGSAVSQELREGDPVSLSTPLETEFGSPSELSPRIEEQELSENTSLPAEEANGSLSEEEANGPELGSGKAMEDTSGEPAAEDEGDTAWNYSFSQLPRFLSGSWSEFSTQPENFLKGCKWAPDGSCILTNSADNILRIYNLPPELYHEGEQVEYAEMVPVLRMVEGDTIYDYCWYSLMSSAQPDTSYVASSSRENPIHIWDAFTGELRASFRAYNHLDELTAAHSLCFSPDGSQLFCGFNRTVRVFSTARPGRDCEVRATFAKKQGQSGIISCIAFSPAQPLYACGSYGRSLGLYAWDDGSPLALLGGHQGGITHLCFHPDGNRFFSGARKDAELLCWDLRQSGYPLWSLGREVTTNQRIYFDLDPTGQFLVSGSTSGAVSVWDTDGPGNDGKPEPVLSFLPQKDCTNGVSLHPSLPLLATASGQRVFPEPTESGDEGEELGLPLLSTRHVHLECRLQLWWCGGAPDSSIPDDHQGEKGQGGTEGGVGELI

imetelstat
self-renewal capacity (replating) of MF CD34+ cells (pre-LSC) (MF CD34+ cells (pre-LSC)): decrease
self-renewal capacity (replating) of MF CD34+ cells (pre-LSC) (MF CD34+ cells (pre-LSC); listed as Imetelstat): significantly inhibited
survival of MF CD34+ cells (pre-LSC) (MF CD34+ cells (pre-LSC)): decrease
survival of MF CD34+ cells (pre-LSC) (MF CD34+ cells (pre-LSC); listed as Imetelstat): significantly inhibited
progenitor (CD34+CD38+Lin-) engraftment by FACS ([1]; MF318 mouse BM, compared to control treated mice, p<0.04): lower
human CD45+ engraftment by FACS ([1]; MF mouse BM, compared to control treated mice, p<0.014): lower
human CD45+ leukemic cell engraftment by confocal immunofluorescence microscopy ([1]; bone marrow, vs vehicle and mismatch controls): lower
splenomegaly ([1]; compared to control treated mice): decreased splenomegaly
proliferation of human CD45+ cells in bone marrow and spleen ([1]; pre-LSC mouse models from 4 different MF samples, vs vehicle controls, p<0.01, t test): significant reduction
reticulin fibrosis in bone marrow (immunohistochemistry) ([1]; vs vehicle and mismatch controls): less reticulin fibrosis
telomerase activity by TRAP assay (telomerase): reduction
